SMILES strings stand for the structures.

This experiment concerns the target T1, GajA (Bacillus cereus, UniProt J8H9C1).
T1 construct: full length residues 1-578, N-terminal 6xHis tag kept (pET28a, NdeI/NotI), expressed in E. coli BL21(DE3), 69 kDa with tag; without GajB
As to the kind of experiment: inhibition of lambda955 DNA cleavage, agarose gel densitometry. The settings on record: 20 nM lambda955 DNA, 200 nM enzyme, 20 mM Tris-HCl pH 9, 1 mM MgCl2, 37 °C, 5 min; allosteric, ATPase-like domain. In kind it is biochemical.

T1 sequence (J8H9C1 whole entry, the tested form may be a part): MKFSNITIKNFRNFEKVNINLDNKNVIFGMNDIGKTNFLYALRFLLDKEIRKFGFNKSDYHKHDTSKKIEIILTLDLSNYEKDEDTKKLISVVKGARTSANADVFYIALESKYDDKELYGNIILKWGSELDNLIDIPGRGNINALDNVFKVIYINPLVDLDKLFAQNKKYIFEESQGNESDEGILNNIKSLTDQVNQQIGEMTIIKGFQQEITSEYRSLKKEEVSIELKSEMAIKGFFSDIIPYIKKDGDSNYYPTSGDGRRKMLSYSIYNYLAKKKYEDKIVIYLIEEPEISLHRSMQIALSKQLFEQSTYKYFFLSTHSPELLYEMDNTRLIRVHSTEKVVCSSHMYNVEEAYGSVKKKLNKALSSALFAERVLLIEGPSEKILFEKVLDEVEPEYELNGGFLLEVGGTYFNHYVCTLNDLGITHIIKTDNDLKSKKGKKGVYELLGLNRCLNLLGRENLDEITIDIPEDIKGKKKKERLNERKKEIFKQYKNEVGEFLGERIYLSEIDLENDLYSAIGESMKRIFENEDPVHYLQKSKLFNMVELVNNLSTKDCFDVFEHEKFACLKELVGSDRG

As to `Nc1ncnc2c1ncn2[C@@H]1O[C@H](COP(=O)(O)OP(=O)(O)O)[C@@H](O)[C@H]1O` [ADP], the inhibition entry is “strongly inhibited by all NTP and dNTP, even ADP, while AMP had no significant effect”.

Values taken from publication PMC8136825, “A nucleotide-sensing endonuclease from the Gabija bacterial defense system” (Nucleic Acids Research, 2021).
